Results: patent US20110104081A1, “Oral Compositions for Treatment of Dry Mouth” (priority 2009, published 2011)

Test: Water gain (moisture uptake) of treated cotton swatches
Type: physicochemical
Conditions: dried
Procedure: For table 2, the test method is as follows: For “no rinse”: 1×1 cm cotton swatches (triplicates) are placed into a weigh boat where each is labeled according to treatment type and number. Initial weights are recorded for each sample. 500 uL of polymer solution is applied to each cotton swatch sample then reweighed as wet weight. Samples are allowed to dry overnight at room temperature conditions. Sample weights are recorded in the following morning as “no rinse”. Samples are then placed on a tray in the incubator at 37° C., 3.3% CO2, and approximately 90% humidity (the metal tray at the bottom of the incubator has plenty of distilled water in the pan to ensure constant humidity). Opening and closing the incubator door frequently causes parameters to shift so minimizing this will ensure proper control over parameter. Samples are incubated for 8 hours then reweighed. The weights represent the moisture uptake ability for the treated samples. For “with rinse”: Following the weighing, samples are rinsed for 5 seconds in 500 g of vortexing water, and placed into respective weigh boat. Samples are dried overnight at room temperature conditions. Samples are weighed and placed in the incubator the following morning similar to above described procedure and weights are recorded as “with rinse”.

OCC(O)CO [40% glycerin, glycerin]
Water gain (No Rinse, incubated 8 hours at 37° C., approximately 90% humidity): 393.3 mg | Water gain (With Rinse, rinsed with water, incubated): 126.9 mg
